The subject of series [1] is influenza virus (IFV) A/California/07/2009 (H1N1) pdm09 strain. The series can be described thus: In vitro activity against influenza virus (CPE, CCK8, MDCK cells). Type of series: cell-based. The settings on record: 120 h; for EC50: read-out: IFV (MDCK) EC50.
For series [2], the system named is respiratory syncytial virus (RSV) A long strain. The series can be described thus: In vitro activity against respiratory syncytial virus (CPE, CCK8, HEp-2 cells). Type of series: cell-based. The settings on record: human respiratory syncytial virus, 120 h, MOI=0.02, 5 days; for inhibition at 5 µM: read-out: RSV (HEp-2) inhibition rate at a concentration of 5 μM.
A short description of series [3]: in vitro. The settings on record: dog.
Series [4] in a line: Cytotoxicity in HEp-2 cells (CCK8). The settings on record: human.

`CC(C)C(=O)OCn1c(=O)ccn([C@@H]2O[C@](F)(CO)[C@@H](O)[C@H]2O)c1=O` [Compound X43]: the EC50 (in general, the concentration needed to bring the measured effect to its halfway point) in series [1] is 500 nM; in series [2], 2320 nM. Also, the CC50 in series [3] is greater than 10000 nM. Further, the CC50 at 5 days in series [4] is greater than 10000 nM.
`CCC(CC)C(=O)OC[C@@]1(F)O[C@@H](n2ccc(=O)n(COC(=O)C(C)C)c2=O)[C@H](O)[C@@H]1O` [Compound X57]: the figures for the inhibition at 5 µM in series [1] (read-out: IFV (MDCK) inhibition rate at a concentration of 5 μM) and in series [2] were 90.5% and 50.3%, respectively. Moreover, the CC50 in series [3] is greater than 5000 nM. The CC50 at 5 days in series [4] was greater than 5000 nM.
As to `O=C(OCn1c(=O)ccn([C@@H]2O[C@](F)(COC(=O)C3CCCCC3)[C@@H](O)[C@H]2O)c1=O)C1CCCCC1` [Compound X63], the values for the EC50 in series [1] and in series [2] were less than 370 nM and 1510 nM, respectively. The CC50 in series [3] is greater than 10000 nM. In series [4], the CC50 at 5 days was greater than 10000 nM.
As for `CC(C)C(=O)OCn1c(=O)ccn([C@@H]2O[C@](F)(COC(=O)C(C)C)[C@H]3OC(=O)O[C@@H]23)c1=O` [Compound X113], the EC50 in series [1] was less than 370 nM; in series [2] it was 1970 nM. The CC50 in series [3] is greater than 10000 nM. Further, the CC50 at 5 days in series [4] was greater than 10000 nM.
For the compound `CC(C)=CCOc1ccn([C@@H]2O[C@](F)(COC(=O)C(C)C)[C@@H](O)[C@H]2O)c(=O)n1` [Compound X134], the EC50 was found to be 460 nM in series [1] and 1200 nM in series [2]. In series [3], this compound returned a CC50 greater than 10000 nM. The same compound registered a CC50 at 5 days in series [4] greater than 10000 nM.
Regarding `CC(C)C(=O)OCn1c(=O)ccn([C@@H]2O[C@](F)(CO)[C@H]3OC(=O)O[C@@H]23)c1=O` [Compound X173], the EC50 in series [1] was 460 nM; in series [2], 2620 nM. In series [3], this compound had a CC50 greater than 10000 nM. In series [4], this compound showed a CC50 at 5 days greater than 10000 nM.
On to `CC(C)C(=O)OC[C@@]1(F)O[C@@H](n2ccc(=O)n(COC(=O)CCCN(C)C)c2=O)[C@@H]2OC(=O)O[C@@H]21` [Compound X185], for which, in series [2], the inhibition at 5 µM amounted to 94.7%. Also, the CC50 at 5 days in series [4] is greater than 5000 nM.
Take `O=C(/C=C/c1ccccc1)OCn1c(=O)ccn([C@@H]2O[C@](F)(COC(=O)/C=C/c3ccccc3)[C@@H](O)[C@H]2O)c1=O` [Compound X198]: the EC50 in series [2] was 2450 nM. In addition, the CC50 at 5 days in series [4] was greater than 10000 nM.
Consider `CCCCCCCCCCCCCCCC(=O)OCn1c(=O)ccn([C@@H]2O[C@](F)(COC(=O)CCCCCCCCCCCCCCC)[C@@H](O)[C@H]2O)c1=O` [Compound X200], for which the concentration for a half-maximal effect (EC50) in series [1] came out at 2290 nM; in series [2] it was 1170 nM. Besides, the CC50 in series [3] is greater than 10000 nM. Besides, the CC50 at 5 days in series [4] is greater than 10000 nM.
Turning to `CC(C)C(=O)OCn1c(=O)ccn([C@@H]2O[C@](F)(COC(=O)C(C)C)[C@@H](OC(=O)C(C)C)[C@H]2OC(=O)C(C)C)c1=O` [Compound X201], the EC50 came out at 560 nM in series [1] and 1510 nM in series [2]. Moreover, the CC50 in series [3] is greater than 10000 nM. In series [4], this compound displayed a CC50 at 5 days greater than 10000 nM.
As for `CC(C)C(=O)OC[C@@]1(F)O[C@@H](n2ccc(=O)n(COC(=O)C3CCNCC3)c2=O)[C@H](OC(=O)C(C)C)[C@@H]1OC(=O)C(C)C` [Compound X204], the EC50 in series [1] came to 650 nM; in series [2] it was 1520 nM. The compound also came in with a CC50 in series [3] greater than 10000 nM. Further, in series [4], the CC50 at 5 days was greater than 10000 nM.
For `CC(C)C(=O)OC[C@@]1(F)O[C@@H](n2ccc(=O)n(COC(=O)C3CCN(C)CC3)c2=O)[C@H](OC(=O)C(C)C)[C@@H]1OC(=O)C(C)C` [Compound X205], the EC50 in series [1] was less than 370 nM; in series [2] it was 2560 nM. The compound further gave a CC50 in series [3] greater than 10000 nM. Also, the CC50 at 5 days in series [4] is greater than 10000 nM.
`CC(C)C(=O)OCn1c(=O)ccn([C@@H]2O[C@](F)(COC(=O)c3cccnc3)[C@@H](O)[C@H]2O)c1=O` [Compound X208]: the concentration giving a half-maximal response (EC50) is less than 370 nM in series [1] and 1090 nM in series [2]. The CC50 in series [3] is greater than 10000 nM.
For `CC(C)(C)C(=O)OC[C@@]1(F)O[C@@H](n2ccc(=O)n(COC(=O)c3cccnc3)c2=O)[C@H](O)[C@@H]1O` [Compound X210], the results for the EC50 in series [1] and in series [2] were less than 370 nM and 1880 nM, respectively. The CC50 in series [3] was greater than 10000 nM. The CC50 at 5 days in series [4] is greater than 10000 nM.

Source of the values: patent publication US20250282812A1, “ANTIVIRAL NUCLEOSIDE ANALOGUE, AND PHARMACEUTICAL COMPOSITION AND USE THEREOF” (SHANGHAI INSTITUTE OF MATERIA MEDICA , CHINESE ACADEMY OF …, priority 2022, published 2025).
